Results as given in patent US20230091047A1 (priority 2019, published 2023).
Like-named read-outs stand apart in the source and are kept apart here.

How the values were obtained:
[1] = tested on: HBV (HepG2.117 cell line, inducibly HBV producing); test: Anti-HBV activity: intracellular HBV DNA by real-time PCR in HepG2.117 cells after 3 days of treatment; type: cell-based, hepatitis B virus
How it was run: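 Tet-off HepG2.117; HBV replication induced (no doxycycline); serial compound dilutions, 3 d; intracellular HBV DNA by real-time PCR, HBV-specific primers/probe.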

[2] = in vitro; type: cell-based; details: human, HepG2 or HepG2.117 cells, ATPlite, mean value; for CC50 at 4 days: 4-days incubation (values marked with *)
How it was run: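 Luminescent ATP quantitation served as the viability endpoint following a 3- or 4-day incubation with test compounds.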

[3] = Hepatitis B virus, HepG2.117, 72 h, HepG2.117 cells, 3 days of treatment, intracellular HBV DNA by real-time PCR; mean value; read-out: EC50 (μM, mean value)
[4] = 3-days incubation (unmarked values)
[5] = Hepatitis B virus, HepG2.117, 72 h, HepG2.117 cells, intracellular HBV DNA by real-time PCR, 3 days of treatment, mean value; read-out: EC50 (μM, mean value)
[6] = 3-days incubation (not marked with *)

Compound	EC50 [1, 3] [µM]	CC50 at 3 days [2, 4] [µM]	EC50 [1, 5] [µM]	CC50 at 3 days [2, 6] [µM]	CC50 at 4 days [2] [µM]
COc1ccc(CNc2nc3c(c(=O)n2-c2cccc(C(=O)O)c2)CCN(C(=O)c2ccc(Cl)c(Cl)c2)C3)cc1 [Compound C75, 3-[7-(3,4-dichlorobenzoyl)-2-{[(4-methoxyphenyl)methyl]amino}-4-oxo-5,6,7,8-tetrahydropyrido[3,4-d]pyrimidin-3(4H)-yl]benzoic acid]	> 50	> 50			
CNC(=O)c1ccc(-n2c(N3CCOC(C)C3)nc3c(c2=O)C[C@@H](C)N(C(=O)c2ccc(Cl)c(Cl)c2)C3)cc1 (stereo partly shown) [Compound C470]			> 25	> 50	
CNC(=O)c1ccc(-n2c(NCC(n3cncn3)C(F)(F)F)nc3c(c2=O)C[C@@H](C)N(C(=O)c2ccc(Cl)c(Cl)c2)C3)cc1 (stereo partly shown) [Compound C601]			7.71	> 50	
CNC(=O)c1cc(-n2c(N[C@@H](C)c3ccc(F)cc3)nc3c(c2=O)C[C@@H](C)N(C(=O)c2ccc(Cl)c(Cl)c2)C3)[nH]n1 [Compound C432]			0.1	21.4	
CNC(=O)c1ccc(-n2c(N[C@H]3C[C@H]4CC[C@]3(C)C4(C)C)nc3c(c2=O)C[C@@H](C)N(C(=O)c2ccc(Cl)c(Cl)c2)C3)cc1 [Compound C621]			> 2.5	5.99	
COc1ccc(CNc2nc3c(c(=O)n2C)CCN(C(=O)c2ccc(Cl)c(Cl)c2)C3)cc1 [Compound C52, 7-(3,4-dichlorobenzoyl)-2-{[(4-methoxyphenyl)methyl]amino}-3-methyl-5,6,7,8-tetrahydropyrido[3,4-d]pyrimidin-4(3H)-one]	5.1	> 50			
CC(C)Nc1nc2c(c(=O)n1-c1ccc(S(C)(=O)=O)cc1)CC(C)N(C(=O)c1ccc(Cl)c(Cl)c1)C2 (stereo not shown) [Compound C100, 7-(3,4-dichlorobenzoyl)-3-[4-(methanesulfonyl)phenyl]-6-methyl-2-[(propan-2-yl)amino]-5,6,7,8-tetrahydropyrido[3,4-d]pyrimidin-4(3H)-one]	0.51	> 25			
CNC(=O)c1ccc(-n2c(N[C@H](C)c3cnnn3C)nc3c(c2=O)C[C@@H](C)N(C(=O)c2ccc(Cl)c(Cl)c2)C3)cc1 [Compound C517]			> 25	> 50	
CCN(CC)c1nc2c(c(=O)n1-c1ccc(C(=O)NC)nc1)C[C@@H](C)N(C(=O)c1ccc(Cl)c(Cl)c1)C2 [Compound C625]			0.18	> 50	
CNC(=O)c1ccc(-n2c(NC(C)C)nc3c(c2=O)C[C@@H](C)N(C(=O)c2ccc(Cl)c(OC(F)F)c2)C3)cc1 [Compound C679]			0.21	> 50	
CNC(=O)c1ccc(-n2c(NC(C)C)nc3c(c2=O)C[C@@H](C)N(C(=O)c2ccc(Br)c(OC(C)C)c2)C3)cc1 [Compound C575]			0.55	> 50	
CNC(=O)c1ccc(-n2c(N[C@@H](C)c3ccnn3C)nc3c(c2=O)C[C@@H](C)N(C(=O)c2ccc(Cl)c(Cl)c2)C3)cc1 (single isomer, unassigned) [Compound C372b]	2.54	> 50			
CC(C)Nc1nc2c(c(=O)n1-c1ccc(S(C)(=O)=O)cc1)CCN(C(=O)c1cc3ccccc3s1)C2 [Compound C182, 7-(1-benzothiophene-2-carbonyl)-3-[4-(methanesulfonyl)phenyl]-2-[(propan-2-yl)amino]-5,6,7,8-tetrahydropyrido[3,4-d]pyrimidin-4(3H)-one]	3.14	> 50			
CNC(=O)c1ccc(-n2c(NC(C)C)nc3c(c2=O)C[C@@H](C)N(C(=O)c2ccc(Br)c(Cl)c2F)C3)cc1 [Compound C580]			0.08	> 50	
CNC(=O)c1ccc(-n2c(N[C@@H](C)c3ccc(OC)c(OC)c3)nc3c(c2=O)C[C@@H](C)N(C(=O)c2ccc(Cl)c(Cl)c2)C3)cc1 (single isomer, unassigned) [Compound C415b]			0.12	27.6	
CNC(=O)c1ccc(-n2c(N[C@@H](C)c3ccc(C(F)(F)F)c(Cl)c3)nc3c(c2=O)C[C@@H](C)N(C(=O)c2ccc(Cl)c(Cl)c2)C3)cc1 (single isomer, unassigned) [Compound C664b]			> 2.5	> 50	

Compound	EC50 [1, 3] [µM]	CC50 at 3 days [2, 4] [µM]	EC50 [1, 5] [µM]	CC50 at 3 days [2, 6] [µM]	CC50 at 4 days [2] [µM]
COc1ccc(CNc2nc3c(c(=O)n2-c2cccc(C(F)(F)F)c2)CCN(C(=O)c2ccc(Cl)c(Cl)c2)C3)cc1 [Compound C7, 7-(3,4-dichlorobenzoyl)-2-{[(4-methoxyphenyl)methyl]amino}-3-[3-(trifluoromethyl)phenyl]-5,6,7,8-tetrahydropyrido[3,4-d]pyrimidin-4(3H)-one]	2.03				> 50
CNC(=O)c1ccc(-n2c(N[C@H](c3ccc(OC)cc3)C(C)C)nc3c(c2=O)C[C@@H](C)N(C(=O)c2ccc(Cl)c(Cl)c2)C3)cc1 (single isomer, unassigned) [Compound C422b]			0.28	17.2	
CNC(=O)c1ccc(-n2c(NC(C)C)nc3c(c2=O)C[C@@H](C)N(C(=O)c2ccc(Cl)cc2F)C3)cc1 [Compound C520]			3.74	> 50	
CNC(=O)c1ccc(-n2c(N3CCC[C@H]3C3CC3)nc3c(c2=O)C[C@@H](C)N(C(=O)c2ccc(Cl)c(Cl)c2)C3)cc1 (single isomer, unassigned) [Compound C353, 4-[(6R)-2-[(2*S)-2-cyclopropylpyrrolidin-1-yl]-7-(3,4-dichlorobenzoyl)-6-methyl-4-oxo-5,6,7,8-tetrahydropyrido[3,4-d]pyrimidin-3(4H)-yl]-N-methylbenzamide]	0.11	19.5			
COc1ccccc1-n1c(NCC2CC2)nc2c(c1=O)CCN(C(=O)c1ccc(Cl)c(Cl)c1)C2 [Compound C50, 2-[(cyclopropylmethyl)amino]-7-(3,4-dichlorobenzoyl)-3-(2-methoxyphenyl)-5,6,7,8-tetrahydropyrido[3,4-d]pyrimidin-4(3H)-one]	5.85	26.7			
CNC(=O)c1ccc(-n2c(N[C@H](C)c3ccc(OC)cc3)nc3c(c2=O)C[C@@H](C)N(C(=O)c2ccc(Cl)c(Cl)c2)C3)cc1 (single isomer, unassigned) [Compound C347a]			0.1	35.1	
CNC(=O)c1ccc(-n2c(NC(C)C)nc3c(c2=O)C[C@@H](C)N(C(=O)c2cc(F)c(Br)c(F)c2)C3)cc1 [Compound C519]			0.02	> 50	
COc1ccc(CNc2nc3c(c(=O)n2-c2ccc(-n4cccn4)cc2)CCN(C(=O)c2ccc(Cl)c(Cl)c2)C3)cc1 [Compound C143, 7-(3,4-dichlorobenzoyl)-2-{[(4-methoxyphenyl)methyl]amino}-3-[4-(1H-pyrazol-1-yl)phenyl]-5,6,7,8-tetrahydropyrido[3,4-d]pyrimidin-4(3H)-one]	1.46	> 50			
O=C(c1ccc(Cl)c(Cl)c1)N1CCc2c(nc(NCc3ccccc3)[nH]c2=O)C1 [Compound C21, 2-(benzylamino)-7-(3,4-dichlorobenzoyl)-5,6,7,8-tetrahydropyrido[3,4-d]pyrimidin-4(3H)-one]	7.51				24.7
CC(C)Nc1nc2c(c(=O)n1-c1ccc(-c3ccn4ccnc4c3)cc1)C[C@@H](C)N(C(=O)c1ccc(Cl)c(Cl)c1)C2 [Compound C189, (6R)-7-(3,4-dichlorobenzoyl)-3-[4-(imidazo[1,2-a]pyridin-7-yl)phenyl]-6-methyl-2-[(propan-2-yl)amino]-5,6,7,8-tetrahydropyrido[3,4-d]pyrimidin-4(3H)-one]	0.1	9.8			
CNC(=O)c1ccc(-n2c(N[C@H](C)c3cccc(OC)c3)nc3c(c2=O)C[C@@H](C)N(C(=O)c2ccc(Cl)c(Cl)c2)C3)cc1 (single isomer, unassigned) [Compound C394a]			32.5	> 50	
CNC(=O)c1ccc(-n2c(N(C)Cc3cn(C)nn3)nc3c(c2=O)C[C@@H](C)N(C(=O)c2ccc(Cl)c(Cl)c2)C3)cc1 [Compound C479]			3.81	> 50	
COc1ccccc1-n1c(NCc2cscn2)nc2c(c1=O)CCN(C(=O)c1ccc(Cl)c(Cl)c1)C2 [Compound C16, 7-(3,4-dichlorobenzoyl)-3-(2-methoxyphenyl)-2-{[(1,3-thiazol-4-yl)methyl]amino}-5,6,7,8-tetrahydropyrido[3,4-d]pyrimidin-4(3H)-one]	2.29				45.3
CSc1nc2c(c(=O)[nH]1)CCN(C(=O)c1ccc(Cl)c(Cl)c1)C2 [Compound C6, 7-(3,4-dichlorobenzoyl)-2-(methylsulfanyl)-5,6,7,8-tetrahydropyrido[3,4-d]pyrimidin-4(3H)-one]	16				> 50
CC(C)Nc1nc2c(c(=O)n1-c1ccc(-c3nn[nH]n3)cc1)C[C@@H](C)N(C(=O)c1ccc(Cl)c(Cl)c1)C2 [Compound C453]			5.81	> 50	
COc1ccc(CNc2nc3c(c(=O)n2-c2ccccc2OC)CC(C)N(C(=O)c2ccc(Cl)c(Cl)c2)C3)cc1 (stereo not shown) [Compound C36, 7-(3,4-dichlorobenzoyl)-3-(2-methoxyphenyl)-2-{[(4-methoxyphenyl)methyl]amino}-6-methyl-5,6,7,8-tetrahydropyrido[3,4-d]pyrimidin-4(3H)-one]	1.26	> 50			
